Consider 1 compound from PMC9025269, “Synthesis and Anti-Hepatitis B Activities of 3′-Fluoro-2′-Substituted Apionucleosides” (Molecules, 2022).

The target in this assay is T1, human DNA polymerase α (Homo sapiens, UniProt P09884).
T1 construct: purchased CHIMERx 1075-1
T1 sequence (P09884 1-1462): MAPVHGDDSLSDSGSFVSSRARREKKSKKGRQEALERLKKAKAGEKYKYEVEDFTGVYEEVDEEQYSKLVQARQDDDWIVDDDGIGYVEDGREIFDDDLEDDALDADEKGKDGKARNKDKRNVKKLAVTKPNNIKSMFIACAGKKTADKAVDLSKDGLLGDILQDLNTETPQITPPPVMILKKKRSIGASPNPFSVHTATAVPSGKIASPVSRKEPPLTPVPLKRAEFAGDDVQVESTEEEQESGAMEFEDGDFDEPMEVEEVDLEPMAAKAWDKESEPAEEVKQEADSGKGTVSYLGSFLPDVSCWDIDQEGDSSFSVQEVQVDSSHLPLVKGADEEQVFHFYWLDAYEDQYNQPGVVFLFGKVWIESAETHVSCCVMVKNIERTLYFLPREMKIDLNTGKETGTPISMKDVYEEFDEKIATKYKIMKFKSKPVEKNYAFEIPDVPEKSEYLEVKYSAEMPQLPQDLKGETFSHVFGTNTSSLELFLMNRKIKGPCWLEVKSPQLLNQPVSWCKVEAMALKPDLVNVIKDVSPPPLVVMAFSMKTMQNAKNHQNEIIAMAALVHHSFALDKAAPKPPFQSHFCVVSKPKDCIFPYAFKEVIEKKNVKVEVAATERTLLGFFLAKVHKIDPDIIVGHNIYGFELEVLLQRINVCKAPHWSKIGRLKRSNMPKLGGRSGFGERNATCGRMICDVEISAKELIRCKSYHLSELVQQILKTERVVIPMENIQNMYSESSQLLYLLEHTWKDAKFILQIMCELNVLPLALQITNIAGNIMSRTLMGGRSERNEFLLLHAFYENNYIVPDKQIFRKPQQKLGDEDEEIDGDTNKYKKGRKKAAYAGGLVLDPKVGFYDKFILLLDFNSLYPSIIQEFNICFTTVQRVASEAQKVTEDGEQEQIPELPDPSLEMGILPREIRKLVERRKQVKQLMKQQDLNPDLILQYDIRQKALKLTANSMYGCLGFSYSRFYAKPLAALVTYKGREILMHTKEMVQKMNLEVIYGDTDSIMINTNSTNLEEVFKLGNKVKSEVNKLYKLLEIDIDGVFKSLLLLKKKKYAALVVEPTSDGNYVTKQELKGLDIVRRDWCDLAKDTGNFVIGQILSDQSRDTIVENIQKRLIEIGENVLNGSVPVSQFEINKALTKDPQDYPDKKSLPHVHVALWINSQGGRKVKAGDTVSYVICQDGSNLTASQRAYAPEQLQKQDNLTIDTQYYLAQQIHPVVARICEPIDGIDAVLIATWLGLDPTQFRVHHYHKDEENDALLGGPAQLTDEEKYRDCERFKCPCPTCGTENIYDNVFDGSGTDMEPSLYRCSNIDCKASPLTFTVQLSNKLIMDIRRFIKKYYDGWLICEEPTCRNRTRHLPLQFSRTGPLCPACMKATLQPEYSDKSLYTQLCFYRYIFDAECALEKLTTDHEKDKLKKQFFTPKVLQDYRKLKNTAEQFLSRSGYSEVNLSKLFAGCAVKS
Kind of assay: Human DNA polymerase α DdDp assay. It is filed as biochemical. The protocol: The DNA-dependent DNA polymerization (DdDp) activity of human DNA polymerases α, β, and γ was measured as described previously. Briefly, the assays were run with 5 U/mL recombinant DNA polymerase α (CHIMERx, cat#1075-1), 0.5 U/mL recombinant DNA polymerase β (CHIMERx, cat#1077-1), or 0.1 μg/mL recombinant DNA polymerase γ (Abcam, cat#196066), 62 μg/mL activated calf thymus DNA, 50 mM Tris-HCl (pH 8.0), 60 mM KCl, 5 mM MgCl2, 4 mM dithiothreitol (DTT), 0.1 mg/mL BSA, 2 μM dCTP, 2 μM dATP, 2 μM dGTP, 0.05 μCi/μL ^3H-dTTP (Perkin Elmer) and compounds at various concentrations at 30 °C for 2 h. The 50 μL reactions were processed following the same filter plate method as described above for HIV-1 RT. Acid-precipitated tritiated DNA products retained on the filters were detected by a Trilux MicroBeta scintillation reader (Perkin Elmer). All data were analyzed as described above for HIV-1 RT.

By IC50 is commonly meant the concentration that inhibits the measured activity by half. Read a high IC50 as weaker potency in that assay. In turn, `Nc1ncnc2c1ncn2[C@@H]1OC[C@](F)(COP(=O)(O)OP(=O)(O)OP(=O)(O)O)[C@H]1CO` [Compound 38, ((3S,4S,5R)-5-(6-Amino-9H-purin-9-yl)-3-fluoro-4-(hydroxymethyl)tetrahydrofuran-3-yl)methyl triphosphate] showed an IC50 of 80 µM. For the same compound, the “inhibition of human DNA polymerases” value (human DNA polymerases α, β and γ together) is on record as “low or no inhibition activity against human DNA polymerases”.
